Reference: US20230031406A1, “COMPOUNDS AND COMPOSITIONS FOR TREATING CONDITIONS ASSOCIATED WITH NLRP ACTIVITY” (Novartis AG, priority 2018, published 2023)

What follows are compounds tested on PMA-differentiated THP-1 cells (assay: IL-1β production in PMA-differentiated THP-1 cells stimulated with gramicidin (hTHP-1 assay containing 2% fetal bovine serum; Procedures 1 and 2)). Conditions: Homo sapiens, THP-1, Table B2; 2% fetal bovine serum; class symbols; read-out: hTHP-1 IC50.
Format: cell-based, human
Outline: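 Human monocytic THP-1 cells, matured overnight with PMA at 20 ng/ml, are seeded in low-serum (2% FBS) RPMI. Test compounds, at final concentrations from 100 down to 0.0017 μM, precede gramicidin (5 μM, 2 h) by one hour. Released IL-1β is then determined by HTRF.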
CC(C)n1cc(CO)c(S(N)(=O)=NC(=O)Nc2c3c(nc4c2CCC4(C)C)CCC3)n1 (single isomer, unassigned) [Compound 682b, (R) or (S)-N′-((3,3-dimethyl-1,2,3,5,6,7-hexahydrodicyclopenta [b,e]pyridin-8-yl)carbamoyl)-4-(hydroxymethyl)-1-isopropyl-1H-pyrazole-3-sulfonimidamide] was tested, and the IC50 was 1 to 5 µM.
For NS(=O)(=NC(=O)Nc1c2c(nc3c1CCC3)CCC2)c1ccn(CC(F)(F)F)n1 (single isomer, unassigned) [Compound 685b, (R) or (S)-N′-((1,2,3,5,6,7-hexahydrodicyclopenta [b,e]pyridin-8-yl)carbamoyl)-1-(2,2,2-trifluoroethyl)-1H-pyrazole-3-sulfonimidamide], the IC50 was 1 to 5 µM.

Same assay, conditions: Homo sapiens, THP-1, Table B2; 2% fetal bovine serum; numeric bounds; read-out: hTHP-1 IC50
Work on CC(C)n1cc(CO)c(S(N)(=O)=NC(=O)Nc2c3c(nc4c2CCC4(C)C)CCC3)n1 (single isomer, unassigned) [Compound 682a, (S) or (R)-N′-((3,3-dimethyl-1,2,3,5,6,7-hexahydrodicyclopenta [b,e]pyridin-8-yl)carbamoyl)-4-(hydroxymethyl)-1-isopropyl-1H-pyrazole-3-sulfonimidamide] yielded an IC50 of over 30 µM.
Compound NS(=O)(=NC(=O)Nc1c2c(nc3c1CCC3)CCC2)c1ccn(CC(F)(F)F)n1 (single isomer, unassigned) [Compound 685a, (S) or (R)-N′-((1,2,3,5,6,7-hexahydrodicyclopenta [b,e]pyridin-8-yl)carbamoyl)-1-(2,2,2-trifluoroethyl)-1H-pyrazole-3-sulfonimidamide] has an IC50 of over 30 µM.

Same assay, conditions: Table B2; 2% fetal bovine serum; class symbols; read-out: hTHP-1 IC50
In the case of CC(C)(O)c1cnc(S(N)(=O)=NC(=O)Nc2c3c(nc4c2CCC42CC2)CCC3)s1 (single isomer, unassigned) [Compound 683a, (R) or (S)-5-(2-Hydroxypropan-2-yl)-N′-((1′,5′,6′,7′-tetrahydro-2′H-spiro[cyclopropane-1,3′-dicyclopenta[b,e]pyridin]-8′-yl)carbamoyl) thiazole-2-sulfonimidamide], the IC50 is reported as 0.2 to 1 µM.
With CC(C)(O)c1cnc(S(N)(=O)=NC(=O)Nc2c3c(nc4c2CCC42CC2)CCC3)s1 (single isomer, unassigned) [Compound 683b, (S) or (R)-5-(2-Hydroxypropan-2-yl)-N′-((1′,5′,6′,7′-tetrahydro-2′H-spiro[cyclopropane-1,3′-dicyclopenta[b,e]pyridin]-8′-yl)carbamoyl)thiazole-2-sulfonimidamide] the IC50 was 5 to 30 µM.
For CC(C)(O)c1cncc(S(N)(=O)=NC(=O)Nc2c3c(nc4c2CCC4(C)C)CCC3)c1 (single isomer, unassigned) [Compound 684a, (R) or (S)-N′-((3,3-dimethyl-1,2,3,5,6,7-hexahydrodicyclopenta [b,e]pyridin-8-yl)carbamoyl)-5-(2-hydroxypropan-2-yl)pyridine-3-sulfonimidamide], the IC50 was 0.04 to 0.2 µM.
CC(C)(O)c1cncc(S(N)(=O)=NC(=O)Nc2c3c(nc4c2CCC4(C)C)CCC3)c1 (single isomer, unassigned) [Compound 684b, (S) or (R)-N′-((3,3-dimethyl-1,2,3,5,6,7-hexahydrodicyclopenta [b,e]pyridin-8-yl)carbamoyl)-5-(2-hydroxypropan-2-yl)pyridine-3-sulfonimidamide] showed an IC50 of 5 to 30 µM.
Compound CC(C)(O)c1cnc(S(N)(=O)=NC(=O)Nc2c3c(nc4c2CCC4(C)C)CCC3)s1 (single isomer, unassigned) [Compound 686a, (S) or (R)-N′-((3,3-dimethyl-1,2,3,5,6,7-hexahydrodicyclopenta [b,e]pyridin-8-yl)carbamoyl)-5-(2-hydroxypropan-2-yl)thiazole-2-sulfonimidamide] has an IC50 of 0.2 to 1 µM.
With CC(C)(O)c1cnc(S(N)(=O)=NC(=O)Nc2c3c(nc4c2CCC4(C)C)CCC3)s1 (single isomer, unassigned) [Compound 686b, (R) or (S)-N′-((3,3-dimethyl-1,2,3,5,6,7-hexahydrodicyclopenta [b,e]pyridin-8-yl)carbamoyl)-5-(2-hydroxypropan-2-yl)thiazole-2-sulfonimidamide] the IC50 was 5 to 30 µM.
